Measurements as given in US20230029496A1, “AMINO ACID ALTERNATIVE CURING SYSTEM” (THE TEXAS A&M UNIVERSITY SYSTEM, priority 2019, published 2023).
Several values for one entry are separate records, joined by “and”; a condition that tells them apart may be missing. Equal values may be shown once. Read-outs that look alike come from different tables or passages of the source. Marks after values point to notes of the source that are not given here.

Legend:
[1] = test system: nitric oxide synthase system; settings: pork; for Residual Nitrite, LSMean main effect of Temperature: L-arginine
Experimental: (§1) Fresh ground meat (beef, pork or poultry) was separated in ˜0.5 Kg batches and mixed with 2% salt and 10% added water. […] Each individual batch was mixed (1 min) in a food processor, removed for temperature and pH analyses and then placed into a jerky extruder tube. Approximately 25 g of sample were extruded into 50 mL centrifuge, then capped and labeled and placed into a controlled water batch and heated to a designated internal endpoint temperature (132, 158, or 165° F.).
(§2) Samples also contained 547 ppm sodium erythorbate, a cure accelerator (Phase I) and without sodium erythorbate (Phase II). Samples were placed into test tubes and heated in a controlled water bath to 132, 158 and 165° F. Samples were held in a 40° F. cooler for seven days then tested for residual nitrite. Residual nitrite was tested after deproteinization for amino acid analysis by HPLC. Determination of nitrite (UV/VIS Spectrophotometric Method) was used to detect any residual nitrite for best results in detecting minute amounts of nitrite. Residual nitrite levels were read in a 96 well plate reader at 540 nm.
(§3) Both phases of the experiment were designed as a factorial (concentration level and endpoint temperature) randomized complete block design with three replications. […] Least squares means were generated and Tukey's HSD used to determine significance at P≤0.05.

[2] = test system: nitric oxide synthase system
Experimental: After thermal processing and chilling according to USDA-FSIS Appendix A—Thermal processing (71° C.) and B—Cooling procedures (2° C.) guidelines, the frankfurters will be vacuum packaged and stored under refrigeration (2° C.) until analyzed at 0, 14, 28 and 56 days post manufacture.
The samples were analyzed for residual nitrite after deproteinization by sample preparation for amino acid analysis by HPLC.
Samples were vacuum packaged and refrigerated and evaluated on Day 1, 7, 14, 28 and 56 post manufacture. Differences between treatment and control samples will be determined using Tukey's Least Significant Difference procedure at P≤0.05 level. The experiment was replicated three times.

[3] = not given; remark: listed apart in the source
[4] = test system: nitric oxide synthase system; settings: beef, Phase I, with 547 ppm sodium erythorbate
Experimental: as §1, §2, §3

N=C(N)NCCC[C@H](N)C(=O)O [L-arginine]
Residual Nitrite, LSMean main effect of Concentration ([1]; Phase I, with 547 ppm sodium erythorbate, 1000 ppm L-arginine): 57.57 ppm | Residual Nitrite, LSMean Conc × Temp ([1]; Phase I, with 547 ppm sodium erythorbate, 1000 ppm L-arginine, 132° F.): 39.35 ppm | Residual Nitrite, LSMean Conc × Temp ([1]; Phase I, with 547 ppm sodium erythorbate, 1000 ppm L-arginine, 158° F.): 70.84 ppm | Residual Nitrite, LSMean Conc × Temp ([1]; Phase I, with 547 ppm sodium erythorbate, 1000 ppm L-arginine, 165° F.): 62.52 ppm | Residual Nitrite, LSMean main effect of Concentration ([1]; Phase I, with 547 ppm sodium erythorbate, 2000 ppm L-arginine): 68.91 ppm | Residual Nitrite, LSMean Conc × Temp ([1]; Phase I, with 547 ppm sodium erythorbate, 2000 ppm L-arginine, 132° F.): 80.08 ppm | Residual Nitrite, LSMean Conc × Temp ([1]; Phase I, with 547 ppm sodium erythorbate, 2000 ppm L-arginine, 158° F.): 66.63 ppm | Residual Nitrite, LSMean Conc × Temp ([1]; Phase I, with 547 ppm sodium erythorbate, 2000 ppm L-arginine, 165° F.): 60.04 ppm | Residual Nitrite, LSMean main effect of Concentration ([1]; Phase I, with 547 ppm sodium erythorbate, 3000 ppm L-arginine): 61.54 ppm | Residual Nitrite, LSMean Conc × Temp ([1]; Phase I, with 547 ppm sodium erythorbate, 3000 ppm L-arginine, 132° F.): 60.68 ppm | Residual Nitrite, LSMean Conc × Temp ([1]; Phase I, with 547 ppm sodium erythorbate, 3000 ppm L-arginine, 158° F.): 61.71 ppm | Residual Nitrite, LSMean Conc × Temp ([1]; Phase I, with 547 ppm sodium erythorbate, 3000 ppm L-arginine, 165° F.): 62.24 ppm | Residual Nitrite, LSMean main effect of Concentration ([1]; Phase I, with 547 ppm sodium erythorbate, 4000 ppm L-arginine): 52.07 ppm | Residual Nitrite, LSMean Conc × Temp ([1]; Phase I, with 547 ppm sodium erythorbate, 4000 ppm L-arginine, 132° F.): 48.21 ppm | Residual Nitrite, LSMean Conc × Temp ([1]; Phase I, with 547 ppm sodium erythorbate, 4000 ppm L-arginine, 158° F.): 52.12 ppm | Residual Nitrite, LSMean Conc × Temp ([1]; Phase I, with 547 ppm sodium erythorbate, 4000 ppm L-arginine, 165° F.): 55.87 ppm | Residual Nitrite, LSMean main effect of Concentration ([1]; Phase I, with 547 ppm sodium erythorbate, 5000 ppm L-arginine): 64.52 ppm | Residual Nitrite, LSMean Conc × Temp ([1]; Phase I, with 547 ppm sodium erythorbate, 5000 ppm L-arginine, 132° F.): 40.28 ppm | Residual Nitrite, LSMean Conc × Temp ([1]; Phase I, with 547 ppm sodium erythorbate, 5000 ppm L-arginine, 158° F.): 65.12 ppm | Residual Nitrite, LSMean Conc × Temp ([1]; Phase I, with 547 ppm sodium erythorbate, 5000 ppm L-arginine, 165° F.): 88.16 ppm | Residual Nitrite, LSMean main effect of Temperature ([1]; Phase I, with 547 ppm sodium erythorbate, 132° F.): 53.72 ppm | Residual Nitrite, LSMean main effect of Temperature ([1]; Phase I, with 547 ppm sodium erythorbate, 158° F.): 63.29 ppm | Residual Nitrite, LSMean main effect of Temperature ([1]; Phase I, with 547 ppm sodium erythorbate, 165° F.): 65.72 ppm | Residual Nitrite, LSMean main effect of Concentration ([1]; Phase II, without 547 ppm sodium erythorbate, 1000 ppm L-arginine): 73.46^b ppm and 73.46 ppm | Residual Nitrite, LSMean Conc × Temperature ([1]; Phase II, without 547 ppm sodium erythorbate, 1000 ppm L-arginine, 132° F.): 53.73^c ppm | Residual Nitrite, LSMean Conc × Temperature ([1]; Phase II, without 547 ppm sodium erythorbate, 1000 ppm L-arginine, 158° F.): 84.43^bc ppm | Residual Nitrite, LSMean Conc × Temperature ([1]; Phase II, without 547 ppm sodium erythorbate, 1000 ppm L-arginine, 165° F.): 82.22^bc ppm | Residual Nitrite, LSMean main effect of Concentration ([1]; Phase II, without 547 ppm sodium erythorbate, 2000 ppm L-arginine): 94.97^ab ppm and 94.97 ppm | Residual Nitrite, LSMean Conc × Temperature ([1]; Phase II, without 547 ppm sodium erythorbate, 2000 ppm L-arginine, 132° F.): 85.87^bc ppm | Residual Nitrite, LSMean Conc × Temperature ([1]; Phase II, without 547 ppm sodium erythorbate, 2000 ppm L-arginine, 158° F.): 113.28^ab ppm | Residual Nitrite, LSMean Conc × Temperature ([1]; Phase II, without 547 ppm sodium erythorbate, 2000 ppm L-arginine, 165° F.): 85.76^bc ppm | Residual Nitrite, LSMean main effect of Concentration ([1]; Phase II, without 547 ppm sodium erythorbate, 3000 ppm L-arginine): 85.31^ab ppm and 85.31 ppm | Residual Nitrite, LSMean Conc × Temperature ([1]; Phase II, without 547 ppm sodium erythorbate, 3000 ppm L-arginine, 132° F.): 68.26^bc ppm | Residual Nitrite, LSMean Conc × Temperature ([1]; Phase II, without 547 ppm sodium erythorbate, 3000 ppm L-arginine, 158° F.): 90.54^bc ppm | Residual Nitrite, LSMean Conc × Temperature ([1]; Phase II, without 547 ppm sodium erythorbate, 3000 ppm L-arginine, 165° F.): 97.13^bc ppm | Residual Nitrite, LSMean main effect of Concentration ([1]; Phase II, without 547 ppm sodium erythorbate, 4000 ppm L-arginine): 102.65^a ppm and 102.65 ppm | Residual Nitrite, LSMean Conc × Temperature ([1]; Phase II, without 547 ppm sodium erythorbate, 4000 ppm L-arginine, 132° F.): 71.48^bc ppm | Residual Nitrite, LSMean Conc × Temperature ([1]; Phase II, without 547 ppm sodium erythorbate, 4000 ppm L-arginine, 158° F.): 150.78^a ppm | Residual Nitrite, LSMean Conc × Temperature ([1]; Phase II, without 547 ppm sodium erythorbate, 4000 ppm L-arginine, 165° F.): 85.70^bc ppm | Residual Nitrite, LSMean main effect of Concentration ([1]; Phase II, without 547 ppm sodium erythorbate, 5000 ppm L-arginine): 72.06^b ppm and 72.06 ppm | Residual Nitrite, LSMean Conc × Temperature ([1]; Phase II, without 547 ppm sodium erythorbate, 5000 ppm L-arginine, 132° F.): 59.74^c ppm | Residual Nitrite, LSMean Conc × Temperature ([1]; Phase II, without 547 ppm sodium erythorbate, 5000 ppm L-arginine, 158° F.): 77.63^bc ppm | Residual Nitrite, LSMean Conc × Temperature ([1]; Phase II, without 547 ppm sodium erythorbate, 5000 ppm L-arginine, 165° F.): 78.82^bc ppm | Residual Nitrite, LSMean main effect of Temperature ([1]; Phase II, without 547 ppm sodium erythorbate, 132° F.): 67.81^c ppm and 67.81 ppm | Residual Nitrite, LSMean main effect of Temperature ([1]; Phase II, without 547 ppm sodium erythorbate, 158° F.): 103.33^a ppm and 103.33 ppm | Residual Nitrite, LSMean main effect of Temperature ([1]; Phase II, without 547 ppm sodium erythorbate, 165° F.): 85.93^b ppm and 85.93 ppm | water activity (Aw) (3000 ppm L-arginine, Day 1): 0.979 | water activity (Aw) (3000 ppm L-arginine, Day 7): 0.978 | water activity (Aw) (3000 ppm L-arginine, Day 14): 0.976 | water activity (Aw) (3000 ppm L-arginine, Day 28): 0.982 | water activity (Aw) (4000 ppm L-arginine, Day 1): 0.979 | water activity (Aw) (4000 ppm L-arginine, Day 7): 0.982 | water activity (Aw) (4000 ppm L-arginine, Day 14): 0.975 | water activity (Aw) (4000 ppm L-arginine, Day 28): 0.975 | water activity (Aw) (5000 ppm L-arginine, Day 1): 0.982 | water activity (Aw) (5000 ppm L-arginine, Day 7): 0.957 | water activity (Aw) (5000 ppm L-arginine, Day 14): 0.972 | water activity (Aw) (5000 ppm L-arginine, Day 28): 0.976 | residual sodium nitrite ([2]; 3000 ppm L-arginine, Day 1): 55.90 | residual sodium nitrite ([2]; 3000 ppm L-arginine, Day 7): 55.83 | residual sodium nitrite ([2]; 3000 ppm L-arginine, Day 14): 62.60 | residual sodium nitrite ([2]; 3000 ppm L-arginine, Day 28): 58.68 | residual sodium nitrite ([2]; 4000 ppm L-arginine, Day 1): 49.92 | residual sodium nitrite ([2]; 4000 ppm L-arginine, Day 7): 60.36 | residual sodium nitrite ([2]; 4000 ppm L-arginine, Day 14): 53.71 | residual sodium nitrite ([2]; 4000 ppm L-arginine, Day 28): 79.07 | residual sodium nitrite ([2]; 5000 ppm L-arginine, Day 1): 73.95 | residual sodium nitrite ([2]; 5000 ppm L-arginine, Day 7): 61.77 | residual sodium nitrite ([2]; 5000 ppm L-arginine, Day 14): 52.91 | residual sodium nitrite ([2]; 5000 ppm L-arginine, Day 28): 100.11 | pH ([3]; L-arginine 3000 PPM, Day 1): 5.91 | pH ([3]; L-arginine 3000 PPM, Day 7): 5.86 | pH ([3]; L-arginine 3000 PPM, Day 14): 6.02 | pH ([3]; L-arginine 3000 PPM, Day 28): 6.06 | pH ([3]; L-arginine 4000 PPM, Day 1): 5.92 | pH ([3]; L-arginine 4000 PPM, Day 7): 5.90 | pH ([3]; L-arginine 4000 PPM, Day 14): 5.96 | pH ([3]; L-arginine 4000 PPM, Day 28): 6.00 | pH ([3]; L-arginine 5000 PPM, Day 1): 5.87 | pH ([3]; L-arginine 5000 PPM, Day 7): 5.92 | pH ([3]; L-arginine 5000 PPM, Day 14): 5.94 | pH ([3]; L-arginine 5000 PPM, Day 28): 6.01 | Residual Nitrite, LSMean Conc × Temp ([4]; 1000 ppm L-arginine, 132° F.): 85.37 ppm | Residual Nitrite, LSMean Conc × Temp ([4]; 1000 ppm L-arginine, 158° F.): 76.56 ppm | Residual Nitrite, LSMean Conc × Temp ([4]; 1000 ppm L-arginine, 165° F.): 65.51 ppm | Residual Nitrite, LSMean Conc × Temp ([4]; 2000 ppm L-arginine, 132° F.): 82.58 ppm | Residual Nitrite, LSMean Conc × Temp ([4]; 2000 ppm L-arginine, 158° F.): 66.33 ppm | Residual Nitrite, LSMean Conc × Temp ([4]; 2000 ppm L-arginine, 165° F.): 75.98 ppm | Residual Nitrite, LSMean Conc × Temp ([4]; 3000 ppm L-arginine, 132° F.): 78.11 ppm | Residual Nitrite, LSMean Conc × Temp ([4]; 3000 ppm L-arginine, 158° F.): 84.73 ppm | Residual Nitrite, LSMean Conc × Temp ([4]; 3000 ppm L-arginine, 165° F.): 57.42 ppm | Residual Nitrite, LSMean Conc × Temp ([4]; 4000 ppm L-arginine, 132° F.): 72.90 ppm
